Measured values reported in article PMC7382816 (BMC Pharmacology & Toxicology, 2020).
Where two headings read alike, the source gives them in different places.

Assay: Single-dose pharmacokinetics in healthy volunteers under fasting and fed (high-fat breakfast) conditions, plasma concentrations by HPLC-MS, non-compartmental analysis
Assay type: in vivo, human
Parameters: Ke: unit not given here
From the text: The bioequivalence clinical trials were phase I, randomized, open-label, crossover, single-centre, with two periods separated by a 7-day washout stage. Subjects were randomised to one of the two treatment sequences, RT or TR where R was the reference formulation and T was the test formulation. Each of the clinical trial was crossover for evaluation of a test formulation compared to a reference formulation either under fed or fasting conditions. […] The treatments were allocated in a balanced manner on every inclusion day (blocks of 4 subjects). Our study adheres to CONSORT guidelines. […] Sample processing, genotyping for CYP2C19 and drug quantification were performed according to Román et al. […] Pharmacokinetic parameters were estimated from the plasma concentration–time data by non-compartmental analysis (WinNonlin Professional, version 2.0., Pharsight Corporation, USA) as reported by Román et al. […] WinNonLin Professional software version 2.0 was used for the statistical analysis. Pharmacokinetic parameters were log-transformed, and AUC and Cmax were adjusted for dose and weight. The values of pharmacokinetic parameters were expressed as mean ± standard deviation.

[1] = Fast, men, single oral dose, mean ± SD
[2] = both sexes, human, plasma, oral, only CYP2C19*1/*1 subjects, Fast, men and women, mean ± SD
[3] = both sexes, human, plasma, oral, only CYP2C19*1/*1 subjects, Fed, men and women, mean ± SD
[4] = both sexes, human, plasma, po, Fast, all subjects, single oral dose, mean ± SD
[5] = both sexes, human, plasma, po, Fed (high-fat breakfast), all subjects, single oral dose, mean ± SD
[6] = female, human, plasma, oral, only CYP2C19*1/*1 subjects, Fast, women, mean ± SD
[7] = female, human, plasma, oral, only CYP2C19*1/*1 subjects, Fed, women, mean ± SD
[8] = female, human, plasma, po, Fast, women, single oral dose, mean ± SD
[9] = female, human, plasma, po, Fed, women, single oral dose, mean ± SD
[10] = male, human, plasma, oral, only CYP2C19*1/*1 subjects, Fast, men, mean ± SD
[11] = male, human, plasma, oral, only CYP2C19*1/*1 subjects, Fed, men, mean ± SD
[12] = male, human, plasma, po, Fast, men, single oral dose, mean ± SD
[13] = male, human, plasma, po, Fed, men, single oral dose, mean ± SD
[14] = only CYP2C19*1/*1 subjects, Fast, men, mean ± SD
[15] = only CYP2C19*1/*1 subjects, Fast, women, mean ± SD
[16] = only CYP2C19*1/*1 subjects, Fed, men and women, mean ± SD
[17] = only CYP2C19*1/*1 subjects, Fed, men, mean ± SD

Ke (Fast, all subjects, single oral dose, mean ± SD): 0.76 ± 0.29
Cmax [1]: 858.8 ± 432.6 ng/mL
Ke [1]: 0.70 ± 0.29
Ke (Fast, women, single oral dose, mean ± SD): 0.82 ± 0.29
Ke (Fed (high-fat breakfast), all subjects, single oral dose, mean ± SD): 0.67 ± 0.32
Ke (Fed, men, single oral dose, mean ± SD): 0.69 ± 0.35
Ke (Fed, women, single oral dose, mean ± SD): 0.65 ± 0.30
AUC(0-inf) [2]: 1710 ± 1300 ng·h/mL
CL/F [2]: 9.5 mL/min/kg
Vd/F [2]: 0.69 ± 0.38 L/kg
half-life [2]: 1 ± 0.4 h
Cmax (both sexes, human, plasma, oral, only CYP2C19*1/*1 subjects, Fast, men and women, mean ± SD, read-out: Cmax): 860 ± 395 ng/mL
Tmax (both sexes, human, plasma, oral, only CYP2C19*1/*1 subjects, Fast, men and women, mean ± SD, read-out: Tmax): 1.8 ± 0.6 h
AUC(0-inf) [3]: 1520 ± 1290 ng·h/mL
CL/F [3]: 10.3 mL/min/kg
Vd/F [3]: 0.77 ± 0.43 L/kg
half-life [3]: 1 ± 0.4 h
Cmax (both sexes, human, plasma, oral, only CYP2C19*1/*1 subjects, Fed, men and women, mean ± SD, read-out: Cmax): 604 ± 363 ng/mL
Tmax (both sexes, human, plasma, oral, only CYP2C19*1/*1 subjects, Fed, men and women, mean ± SD, read-out: Tmax): 4.9 h
Tmax (both sexes, human, plasma, oral, under fasting conditions, range among subjects, read-out: Tmax range): 1 to 3.5 h
Tmax (both sexes, human, plasma, oral, under fed conditions, range among subjects, read-out: Tmax range): 1 to 17 h
AUC(0-inf) [4]: 2190 ± 2010 ng·h/mL
CL/F [4]: 8.83 mL/min/kg
Vd/F [4]: 0.64 ± 0.34 L/kg
Cmax (both sexes, human, plasma, po, Fast, all subjects, single oral dose, mean ± SD, read-out: Cmax): 931 ± 435 ng/mL
Tmax (both sexes, human, plasma, po, Fast, all subjects, single oral dose, mean ± SD, read-out: Tmax): 2 ± 0.7 h
AUC(0-inf) [5]: 1930 ± 1880 ng·h/mL
CL/F [5]: 10.7 mL/min/kg
Vd/F [5]: 1.02 ± 1.07 L/kg
Cmax (both sexes, human, plasma, po, Fed (high-fat breakfast), all subjects, single oral dose, mean ± SD, read-out: Cmax): 683 ± 394 ng/mL
Tmax (both sexes, human, plasma, po, Fed (high-fat breakfast), all subjects, single oral dose, mean ± SD, read-out: Tmax): 4.9 ± 1.1 h
AUC lower under fed conditions (fed vs fasting, all subjects): 12%
Cmax lower under fed conditions (fed vs fasting, all subjects): 27%
Delay of mean Tmax (absorption) by food (fed vs fasting, all subjects): about 3 h
half-life higher under fed conditions (fed vs fasting, all subjects): 15%
Delay of Tmax by food (fed vs fasting, only subjects with CYP2C19*1/*1): 3 h
AUC(0-inf) [6]: 1980 ± 1220 ng·h/mL
CL/F [6]: 8.83 mL/min/kg
Vd/F [6]: 0.69 ± 0.46 L/kg
half-life [6]: 1 ± 0.3 h
AUC(0-inf) [7]: 1710 ± 1250 ng·h/mL
CL/F [7]: 9.5 mL/min/kg
Vd/F [7]: 0.84 ± 0.54 L/kg
Cmax (female, human, plasma, oral, only CYP2C19*1/*1 subjects, Fed, women, mean ± SD, read-out: Cmax): 640 ± 275 ng/mL
Tmax (female, human, plasma, oral, only CYP2C19*1/*1 subjects, Fed, women, mean ± SD, read-out: Tmax): 5.4 ± 0.4 h
AUC(0-inf) [8]: 2020 ± 1500 ng·h/mL
CL/F [8]: 9.33 mL/min/kg
Vd/F [8]: 0.63 ± 0.31 L/kg
half-life [8]: 1 ± 0.4 h
Cmax (female, human, plasma, po, Fast, women, single oral dose, mean ± SD, read-out: Cmax): 999 ± 438 ng/mL
Tmax (female, human, plasma, po, Fast, women, single oral dose, mean ± SD, read-out: Tmax): 1.9 ± 0.6 h
AUC(0-inf) [9]: 1720 ± 1400 ng·h/mL
CL/F [9]: 12.2 mL/min/kg
Vd/F [9]: 1.3 ± 1.38 L/kg
Cmax (female, human, plasma, po, Fed, women, single oral dose, mean ± SD, read-out: Cmax): 640 ± 640 ng/mL
Tmax (female, human, plasma, po, Fed, women, single oral dose, mean ± SD, read-out: Tmax): 5.4 ± 1 h
AUC(0-inf) [10]: 1470 ± 1400 ng·h/mL
CL/F [10]: 10.3 mL/min/kg
Vd/F [10]: 0.68 ± 0.46 L/kg
Cmax (male, human, plasma, oral, only CYP2C19*1/*1 subjects, Fast, men, mean ± SD, read-out: Cmax): 654 ± 306 ng/mL
AUC(0-inf) [11]: 1410 ± 1160 ng·h/mL
CL/F [11]: 10.5 mL/min/kg
Vd/F [11]: 0.73 ± 0.38 L/kg
half-life [11]: 1 ± 0.4 h
Tmax (male, human, plasma, oral, only CYP2C19*1/*1 subjects, Fed, men, mean ± SD, read-out: Tmax): 4.3 ± 1 h
AUC(0-inf) [12]: 2380 ± 2480 ng·h/mL
CL/F [12]: 8.33 mL/min/kg
Vd/F [12]: 0.65 ± 0.38 L/kg
Tmax (male, human, plasma, po, Fast, men, single oral dose, mean ± SD, read-out: Tmax): 2.1 ± 0.7 h
AUC(0-inf) [13]: 2140 ± 2280 ng·h/mL
CL/F [13]: 9.5 mL/min/kg
Vd/F [13]: 0.75 ± 0.52 L/kg
Cmax (male, human, plasma, po, Fed, men, single oral dose, mean ± SD, read-out: Cmax): 725 ± 448 ng/mL
Tmax (male, human, plasma, po, Fed, men, single oral dose, mean ± SD, read-out: Tmax): 4.5 ± 0.9 h
Ke (only CYP2C19*1/*1 subjects, Fast, men and women, mean ± SD): 0.81 ± 0.23
Ke [14]: 0.82 ± 0.25
Tmax [14]: 2.0 ± 0.7 h
Cmax [15]: 1094.3 ± 366.6 ng/mL
Ke [15]: 0.79 ± 0.23
Ke [16]: 0.80 ± 0.36
Tmax [16]: 4.7 ± 1.0 h
Cmax [17]: 582.8 ± 419.1 ng/mL
Ke [17]: 0.84 ± 0.39
Ke (only CYP2C19*1/*1 subjects, Fed, women, mean ± SD): 0.72 ± 0.32
Structure (SMILES): COc1ccc2[nH]c([S+]([O-])Cc3ncc(C)c(OC)c3C)nc2c1 (stereo not drawn) [Omeprazole, omeprazole]
